EC50 data for 31 compounds are collected here from patent publication US11377425B1, “Small molecule modulators of IL-17” (LEO Pharma A/S, priority 2018, dated 2022).

In this assay the target is T1, human IL-17AA (Homo sapiens, UniProt Q16552).
T1 construct: host or cells: HEK (human embryonic kidney) cells
T1 sequence (Q16552 24-155): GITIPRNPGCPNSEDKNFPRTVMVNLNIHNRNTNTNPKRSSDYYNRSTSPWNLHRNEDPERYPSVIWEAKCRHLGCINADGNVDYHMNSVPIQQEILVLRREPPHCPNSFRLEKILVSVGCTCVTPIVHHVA
As to the kind of experiment: IL-8 release assay in human epithelial keratinocytes adult (HEKa). As to conditions: HEKa cells, 3 ng/mL HEK-human IL-17AA + 10 ng/mL human TNFalpha; read-out: Rel EC50 IL-8 release assay. The assay is classed as cell-based. The method in brief: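 IL-8 release, quantified by HTRF and normalized to controls, reports IL-17 signaling in HEKa cells treated with compound plus final 3 ng/mL IL-17AA (HEK-derived) and 10 ng/mL TNF-alpha for 68-72 h; TNF-alpha-only wells set 100% inhibition. Four-parameter logistic fits (r^2>0.9) give relative IC50 and Emax; PrestoBlue flags cytotoxicity.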

A word on the EC50: it is the concentration giving half of the maximal effect. With `Cc1n[nH]c(C)c1-c1ccc(NC(=O)[C@@H](NC(=O)c2cnn3ncccc23)C2CCCCC2)cc1` [Example 70, N-[(1S)-1-cyclohexyl-2-[4-(3,5-dimethyl-1H-pyrazol-4-yl)anilino]-2-oxo-ethyl]pyrazolo[1,5-b]pyridazine-3-carboxamide], the EC50 was 100 to 1000 nM. For the compound `Cc1n[nH]c(C)c1-c1ccc(NC(=O)[C@@H](NC(=O)c2cn(C)c3ncccc23)C2CCCCC2)cc1` [Example 71, N-[(1S)-1-cyclohexyl-2-[4-(3,5-dimethyl-1H-pyrazol-4-yl)anilino]-2-oxo-ethyl]-1-methyl-pyrrolo[2,3-b]pyridine-3-carboxamide], the EC50 was in the range of 100 to 1000 nM.

As to `Cc1n[nH]c(C)c1-c1ccc(NC(=O)[C@@H](NC(=O)c2cnc3ncccn23)C2CCCCC2)cc1` [Example 72, N-[(1S)-1-cyclohexyl-2-[4-(3,5-dimethyl-1H-pyrazol-4-yl)anilino]-2-oxo-ethyl]imidazo[1,2-a]pyrimidine-3-carboxamide], the EC50 was above 1000 nM. For `Cc1n[nH]c(C)c1-c1ccc(NC(=O)[C@@H](NC(=O)c2coc3ccccc23)C2CCCCC2)cc1` [Example 73, N-[(1S)-1-cyclohexyl-2-[4-(3,5-dimethyl-1H-pyrazol-4-yl)anilino]-2-oxo-ethyl]benzofuran-3-carboxamide] the value was 100 to 1000 nM; for `Cc1n[nH]c(C)c1-c1ccc(NC(=O)[C@@H](NC(=O)c2csc3ccccc23)C2CCCCC2)cc1` [Example 74, N-[(1S)-1-cyclohexyl-2-[4-(3,5-dimethyl-1H-pyrazol-4-yl)anilino]-2-oxo-ethyl]benzothiophene-3-carboxamide], 100 to 1000 nM; for `Cc1n[nH]c(C)c1-c1ccc(NC(=O)[C@@H](NC(=O)c2cnnn2C(C)C)C2CCCCC2)cc1` [Example 75, N-[(1S)-1-cyclohexyl-2-[4-(3,5-dimethyl-1H-pyrazol-4-yl)anilino]-2-oxo-ethyl]-3-isopropyl-triazole-4-carboxamide], 100 to 1000 nM.

For the compound `Cc1n[nH]c(C)c1-c1ccc(NC(=O)[C@@H](NC(=O)c2ccnn2C)[C@@H]2CCc3ccccc32)cc1` [Example 76, N-[(1S)-2-[4-(3,5-dimethyl-1H-pyrazol-4-yl)anilino]-1-[(1R)-indan-1-yl]-2-oxo-ethyl]-2-methyl-pyrazole-3-carboxamide], the EC50 is 100 to 1000 nM. For `Cc1n[nH]c(C)c1-c1ccc(NC(=O)[C@@H](NC(=O)c2ccnn2C)[C@@H]2CCc3ccc(Cl)cc32)cc1` [Example 77, N-[(1S)-1-[(1R)-6-chloroindan-1-yl]-2-[4-(3,5-dimethyl-1H-pyrazol-4-yl)anilino]-2-oxo-ethyl]-2-methyl-pyrazole-3-carboxamide] the value was 100 to 1000 nM. Then `Cc1n[nH]c(C)c1-c1ccc(NC(=O)[C@@H](NC(=O)c2ccnn2C)[C@@H]2CCc3ccc(C#N)cc32)cc1` [Example 78, N-[(1S)-1-[(1R)-6-cyanoindan-1-yl]-2-[4-(3,5-dimethyl-1H-pyrazol-4-yl)anilino]-2-oxo-ethyl]-2-methyl-pyrazole-3-carboxamide], with above 1000 nM; and `Cc1n[nH]c(C)c1-c1ccc(NC(=O)[C@@H](NC(=O)c2ccnn2C)[C@H]2CCc3ccccc32)cc1` [Example 79, N-[(1S)-2-[4-(3,5-dimethyl-1H-pyrazol-4-yl)anilino]-1-[(1S)-indan-1-yl]-2-oxo-ethyl]-2-methyl-pyrazole-3-carboxamide], with below 100 nM. For `Cc1n[nH]c(C)c1-c1ccc(NC(=O)[C@@H](NC(=O)c2ccnn2C)[C@H]2CCc3ccc(C#N)cc32)cc1` [Example 80, N-[(1S)-1-[(1S)-6-cyanoindan-1-yl]-2-[4-(3,5-dimethyl-1H-pyrazol-4-yl)anilino]-2-oxo-ethyl]-2-methyl-pyrazole-3-carboxamide] the value was 100 to 1000 nM.

In the case of `Cc1n[nH]c(C)c1-c1ccc(NC(=O)[C@@H](NC(=O)c2ccnn2C)[C@H]2CCCc3ccccc32)cc1` [Example 81, N-[(1S)-2-[4-(3,5-dimethyl-1H-pyrazol-4-yl)anilino]-2-oxo-1-[(1S)-tetralin-1-yl]ethyl]-2-methyl-pyrazole-3-carboxamide], the EC50 was below 100 nM. For `Cc1n[nH]c(C)c1-c1ccc(NC(=O)[C@@H](NC(=O)c2ccnn2C)[C@H]2CCCc3ccc(C#N)cc32)cc1` [Example 82, N-[(1S)-1-[(1S)-7-cyanotetralin-1-yl]-2-[4-(3,5-dimethyl-1H-pyrazol-4-yl)anilino]-2-oxo-ethyl]-2-methyl-pyrazole-3-carboxamide] the value was 100 to 1000 nM; for `Cc1ncn(C)c1-c1ccc(NC(=O)[C@@H](NC(=O)OC(C)(C)C)C2CCCCC2)cc1` [Example 83, tert-butyl N-[(1S)-1-cyclohexyl-2-[4-(3,5-dimethylimidazol-4-yl)anilino]-2-oxo-ethyl]carbamate], 100 to 1000 nM. Then `Cc1ncn(C)c1-c1ccc(NC(=O)C(NC(=O)OC(C)(C)C)C(C2CC2)C2CC2)cc1` (stereo not shown) [Example 84, tert-butyl N-[1-(dicyclopropylmethyl)-2-[4-(3,5-dimethylimidazol-4-yl)anilino]-2-oxo-ethyl]carbamate], with 100 to 1000 nM; and `Cc1ncn(C)c1-c1ccc(NC(=O)[C@@H](NC(=O)OC(C)(C)C)C2CCCC2)cc1` [Example 87, tert-butyl N-[(1S)-1-cyclopentyl-2-[4-(3,5-dimethylimidazol-4-yl)anilino]-2-oxo-ethyl]carbamate], with above 1000 nM; and `Cc1ncn(C)c1-c1ccc(NC(=O)[C@@H](NC(=O)OC(C)(C)C)C2CCCCCC2)cc1` [Example 88, tert-butyl N-[(1S)-1-cycloheptyl-2-[4-(3,5-dimethylimidazol-4-yl)anilino]-2-oxo-ethyl]carbamate], with 100 to 1000 nM. `CCC(CC)[C@H](NC(=O)OC(C)(C)C)C(=O)Nc1ccc(-c2c(C)ncn2C)cc1` [Example 89, tert-butyl N-[(1S)-1-[[4-(3,5-dimethylimidazol-4-yl)phenyl]carbamoyl]-2-ethyl-butyl]carbamate]: the half-maximal effective concentration (EC50) was above 1000 nM.

On to `CC(C)[C@H](NC(=O)OC(C)(C)C)C(=O)Nc1ccc(-c2cncn2C)cc1` [Example 91, tert-butyl N-[(1S)-2-methyl-1-[[4-(3-methylimidazol-4-yl)phenyl]carbamoyl]propyl] carbamate], for which the EC50 was above 1000 nM. Then `Cn1cncc1-c1ccc(NC(=O)[C@@H](NC(=O)OC(C)(C)C)C2CCC2)cc1` [Example 92, tert-butyl N-[(1S)-1-cyclobutyl-2-[4-(3-methylimidazol-4-yl)anilino]-2-oxo-ethyl]carbamate], with above 1000 nM; and `Cn1cncc1-c1ccc(NC(=O)[C@H](CC2CCCCC2)NC(=O)OC(C)(C)C)cc1` [Example 93, tert-butyl N-[(1S)-1-(cyclohexylmethyl)-2-[4-(3-methylimidazol-4-yl)anilino]-2-oxo-ethyl]carbamate], with above 1000 nM; and `CCC(C)[C@H](NC(=O)OC(C)(C)C)C(=O)Nc1ccc(-c2cncn2C)cc1` (stereo partly drawn) [Example 94, tert-butyl N-[(1S)-2-methyl-1-[[4-(3-methylimidazol-4-yl)phenyl]carbamoyl]butyl] carbamate], with above 1000 nM. Then `Cn1cncc1-c1ccc(NC(=O)[C@H](Cc2ccccc2)NC(=O)OC(C)(C)C)cc1` [Example 95, tert-butyl N-[(1S)-1-benzyl-2-[4-(3-methylimidazol-4-yl)anilino]-2-oxo-ethyl]carbamate], with above 1000 nM; and `CC(C)C[C@H](NC(=O)OC(C)(C)C)C(=O)Nc1ccc(-c2cncn2C)cc1` [Example 96, tert-butyl N-[(1S)-3-methyl-1-[[4-(3-methylimidazol-4-yl)phenyl]carbamoyl]butyl] carbamate], with above 1000 nM.

In the case of `Cn1cncc1-c1ccc(NC(=O)[C@H](Cc2ccccc2Cl)NC(=O)OC(C)(C)C)cc1` [Example 97, tert-butyl N-[(1S)-1-[(2-chlorophenyl)methyl]-2-[4-(3-methylimidazol-4-yl)anilino]-2-oxo-ethyl]carbamate], the EC50 was above 1000 nM. Take `Cn1cncc1-c1ccc(NC(=O)[C@@H](NC(=O)OC(C)(C)C)C2CCCC2)cc1` [Example 98, tert-butyl N-[(1S)-1-cyclopentyl-2-[4-(3-methylimidazol-4-yl)anilino]-2-oxo-ethyl]carbamate]: the EC50 was above 1000 nM. Then `Cn1cncc1-c1ccc(NC(=O)[C@@H](NC(=O)OC(C)(C)C)C2Cc3ccccc3C2)cc1` [Example 99, tert-butyl N-[(1S)-1-indan-2-yl-2-[4-(3-methylimidazol-4-yl)anilino]-2-oxo-ethyl]carbamate], with above 1000 nM; and `Cn1cncc1-c1ccc(NC(=O)[C@@H](NC(=O)OC(C)(C)C)C2CCCCC2)cc1` [Example 100, tert-butyl N-[(1S)-1-cyclohexyl-2-[4-(3-methylimidazol-4-yl)anilino]-2-oxo-ethyl]carbamate], with above 1000 nM; and `Cn1cncc1-c1ccc(NC(=O)[C@@H](NC(=O)OC(C)(C)C)C(c2ccccc2)c2ccccc2)cc1` [Example 101, tert-butyl N-[(1S)-1-benzhydryl-2-[4-(3-methylimidazol-4-yl)anilino]-2-oxo-ethyl]carbamate], with above 1000 nM.

As for `Cc1n[nH]c(C)c1-c1ccc(NC(=O)[C@@H](NC(=O)c2ccnn2CCCO)C(C2CC2)C2CC2)cc1` [Example 102, N-[(1S)-1-(dicyclopropylmethyl)-2-[4-(3,5-dimethyl-1H-pyrazol-4-yl)anilino]-2-oxo-ethyl]-2-(3-hydroxypropyl)pyrazole-3-carboxamide], the EC50 was below 100 nM.

In the case of `Cc1n[nH]c(C)c1-c1ccc(NC(=O)[C@H](NC(=O)c2ccnn2C)C2CCCCC2)cc1` [Example 103, N-[(1R)-1-cyclohexyl-2-[4-(3,5-dimethyl-1H-pyrazol-4-yl)anilino]-2-oxo-ethyl]-2-methyl-pyrazole-3-carboxamide], the EC50 was above 1000 nM.
